The results in this text go back to patent US20250154144A1 (CHILDREN'S HOSPITAL MEDICAL CENTER, priority 2021, published 2025).

Assay [1] has as its system MOLM14(D835Y) cells. The assay is classed as cell-based. The following applies: MOLM14(D835Y) cells; for Excess HSA Score: 10 × 10.
The subject of assay [2] is THP1 cells. Briefly: Combination drug screening, Cell Titer Glo, 10 × 10 matrix, THP1 cells. The following applies: single compound range 0-10,000 nM or 0-20,000 nM. The format is cell-based. On the technique in general: Cellular ATP, detected with luciferase, serves as a proxy for viable cell number.
In assay [3] the target is IRAK1 (Homo sapiens, UniProt P51617). Briefly: RBC HotSpot Kinase Assay, IRAK1. Conditions: IRAK1 IC50.
For assay [4], the target named is T1, FLT3 (Homo sapiens, UniProt P36888).
T1 sequence (P36888 610-943 limits assumed): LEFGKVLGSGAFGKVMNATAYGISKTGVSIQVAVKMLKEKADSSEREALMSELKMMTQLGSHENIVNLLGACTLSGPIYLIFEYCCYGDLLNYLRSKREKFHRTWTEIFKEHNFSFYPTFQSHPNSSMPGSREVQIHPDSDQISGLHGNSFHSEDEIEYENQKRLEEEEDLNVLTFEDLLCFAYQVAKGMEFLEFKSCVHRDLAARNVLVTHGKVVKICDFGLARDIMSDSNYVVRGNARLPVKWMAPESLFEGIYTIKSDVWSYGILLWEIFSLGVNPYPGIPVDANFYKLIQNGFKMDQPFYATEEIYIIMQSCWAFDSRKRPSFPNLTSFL
The assay is described as follows: RBC HotSpot Kinase Assay, FLT3. Conditions: FLT3 IC50.

For assay [5], the system named is MOLM14 D835Y cells. The assay is described as follows: cells. The format is cell-based. Conditions: Homo sapiens, MOLM-14, 48 h, 48 hours, Cell Titer Glo; read-out: MOLM14 D835Y IC50.
In assay [6] the target is T2, IRAK4 (Homo sapiens, UniProt Q9NWZ3).
T2 sequence (Q9NWZ3 1-460): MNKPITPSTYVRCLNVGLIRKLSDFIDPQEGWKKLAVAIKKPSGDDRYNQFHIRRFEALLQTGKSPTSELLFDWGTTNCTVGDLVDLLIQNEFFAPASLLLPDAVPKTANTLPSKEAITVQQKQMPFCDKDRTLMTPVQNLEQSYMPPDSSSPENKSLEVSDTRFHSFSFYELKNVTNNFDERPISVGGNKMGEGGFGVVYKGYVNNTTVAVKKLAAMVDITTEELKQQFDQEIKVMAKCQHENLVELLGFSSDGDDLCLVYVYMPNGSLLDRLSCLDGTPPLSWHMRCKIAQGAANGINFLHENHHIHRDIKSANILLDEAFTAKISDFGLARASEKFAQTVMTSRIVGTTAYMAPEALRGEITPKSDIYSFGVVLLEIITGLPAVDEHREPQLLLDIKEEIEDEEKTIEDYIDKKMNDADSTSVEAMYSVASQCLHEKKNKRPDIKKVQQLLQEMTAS
The assay is described as follows: RBC HotSpot Kinase Assay, IRAK4. Conditions: IRAK4 IC50.

Assay [7] relates to MOLM14 F691L cells. Briefly: cells. The format is cell-based. The following applies: Homo sapiens, MOLM-14, 48 h, 48 hours, Cell Titer Glo; read-out: MOLM14 F691L IC50.
Where [8] appears, read: combination with (+)-BAY-1251152.

pIC50: −log10 of the molar value. Where two headings read alike, the source gives them in different places.

Chain of IRAK1 (P51617 whole entry): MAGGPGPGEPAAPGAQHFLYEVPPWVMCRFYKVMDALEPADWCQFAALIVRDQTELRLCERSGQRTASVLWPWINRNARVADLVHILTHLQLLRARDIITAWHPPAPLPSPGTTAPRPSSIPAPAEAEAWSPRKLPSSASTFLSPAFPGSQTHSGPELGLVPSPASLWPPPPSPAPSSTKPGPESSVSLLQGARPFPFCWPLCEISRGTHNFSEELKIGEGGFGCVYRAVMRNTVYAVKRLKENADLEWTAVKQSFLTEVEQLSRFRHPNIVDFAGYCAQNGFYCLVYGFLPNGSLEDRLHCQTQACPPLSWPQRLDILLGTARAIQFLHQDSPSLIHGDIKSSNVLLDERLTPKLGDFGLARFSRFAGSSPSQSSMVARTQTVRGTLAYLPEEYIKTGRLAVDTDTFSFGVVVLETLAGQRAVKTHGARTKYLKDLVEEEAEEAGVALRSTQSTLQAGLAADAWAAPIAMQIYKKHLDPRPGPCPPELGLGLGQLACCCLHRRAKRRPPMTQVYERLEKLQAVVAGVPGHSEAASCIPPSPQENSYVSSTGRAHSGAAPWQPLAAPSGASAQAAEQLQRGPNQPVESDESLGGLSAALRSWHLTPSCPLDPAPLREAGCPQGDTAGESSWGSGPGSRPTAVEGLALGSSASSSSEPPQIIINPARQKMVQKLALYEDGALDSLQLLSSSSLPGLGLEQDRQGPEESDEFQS

In the case of `COc1ccn2c(-c3cncc(N[C@@H]4CCCNC4)n3)cnc2c1` [Compound 5, (R)-6-(7-methoxyimidazo[1,2-a]pyridin-3-yl)-N-(piperidin-3-yl)pyrazin-2-amine], the “Excess HSA Score” value in assay [1] (setting [8]) is 11.13; in assay [1] (combination with AMG-232) it was −114.6; in assay [1] (combination with AZD-5363), −297.4; in assay [1] (combination with Eprenetapopt/APR-246), −154.6246; in assay [1] (combination with Ivosidenib), −34.74; in assay [1] (combination with Lenalidomide), −84.4505. Further, the “Excess HSA Score” value in assay [1] (combination with Palbociclib) was −483.7; in assay [1] (combination with Prednisolone), −69.46; in assay [1] (combination with SNDX-5613) it was −465.3; in assay [1] (combination with TNO-155) it was −575.9; in assay [1] (combination with Trametinib), 213.7; in assay [1] (combination with Ulixertinib) it was −1042. Besides, the “Excess HSA Score” value in assay [1] (combination with Venetoclax (ABT-199)) is listed as −862.5; in assay [2] (with (+)-BAY-1251152), −264.5; in assay [2] (with AMG-232), 105.5; in assay [2] (with AZD-5363), −94.57; in assay [2] (with Eprenetapopt/APR-246), 163.2; in assay [2] (with Ivosidenib), 190. Moreover, the “Excess HSA Score” value in assay [2] (with Lenalidomide) is 264.6; in assay [2] (with Palbociclib), 624.7438; in assay [2] (with Prednisolone), 31.68; in assay [2] (with SNDX-5613), 340; in assay [2] (with TNO-155), 28.11; in assay [2] (with Trametinib) it was 374.3. Also, the “Excess HSA Score” value in assay [2] (with Ulixertinib) is 565.8; in assay [2] (with Venetoclax (ABT-199)), −1771.116. In addition, the Comments entry in assay [1] (setting [8]) is listed as “Antagonistic”; in assay [1] (combination with Ulixertinib), “Synergistic”; in assay [2] (with (+)-BAY-1251152) it was “Synergistic”; in assay [2] (with AMG-232) it was “Antagonistic”; in assay [2] (with AZD-5363), “Synergistic”; in assay [2] (with Eprenetapopt/APR-246) it was “Antagonistic”. The Comments entry in assay [2] (with Ivosidenib), in assay [2] (with Lenalidomide), in assay [2] (with Palbociclib), in assay [2] (with Prednisolone), in assay [2] (with SNDX-5613) and in assay [2] (with TNO-155) was “Antagonistic” in each case. For the same compound, the Comments result is reported as “Antagonistic” in assay [2] (with Trametinib), “Antagonistic” in assay [2] (with Ulixertinib) and “Synergistic” in assay [2] (with Venetoclax (ABT-199)). In addition, the pIC50 – broadly, the negative decadic logarithm of the IC50, by convention in mol/L – was 7.21 in assay [3]; more than 9.30 in assay [4]; 7.62 in assay [5]; 9.00 in assay [6]; 7.26 in assay [7].
Take `c1cc(-c2cnc3cc(OC4CC4)ccn23)nc(N[C@@H]2CCCNC2)n1` [Compound 38, (R)-4-(7-cyclopropoxyimidazo [1,2-a]pyridin-3-yl)-N-(piperidin-3-yl)pyrimidin-2-amine]: the pIC50 is 7.22 in assay [3]; more than 9.30 in assay [4]; 7.66 in assay [5]; 8.22 in assay [6]; 6.71 in assay [7].
On to `O=C1CCCN1c1cn2c(-c3ccnc(N[C@H]4CNC[C@@H]4F)n3)cnc2cn1` [Compound 46, 1-(3-(2-(((3S,4S)-4-fluoropyrrolidin-3-yl)amino)pyrimidin-4-yl)imidazo[1,2-a]pyrazin-6-yl)pyrrolidin-2-one], for which the pIC50 in assay [3] was 7.19; in assay [4] it was more than 9.30; in assay [5], 7.11; in assay [6] it was 7.92; in assay [7], 5.86.
For `O=C1CCCN1c1cn2c(-c3ccnc(N[C@@H]4CCCNC4)n3)cnc2cn1` [Compound 47, (R)-1-(3-(2-(piperidin-3-ylamino)pyrimidin-4-yl)imidazo[1,2-a]pyrazin-6-yl)pyrrolidin-2-one], the negative logarithm of the IC50 (pIC50) in assay [3] is 7.17; in assay [4], more than 9.30; in assay [5] it was 7.41; in assay [6], 7.92; in assay [7], 6.46.
Taken in the same sequence, the figures for `O=C1CCCN1c1cn2c(-c3ccnc(N[C@H]4CNCC[C@@H]4F)n3)cnc2cn1` [Compound 48, 1-(3-(2-(((3S,4S)-4-fluoropiperidin-3-yl)amino)pyrimidin-4-yl)imidazo[1,2-a]pyrazin-6-yl)pyrrolidin-2-one] were 7.01, more than 9.30, 7.37, 7.74 and 6.56.
As for `CC(C)Oc1ccn2c(-c3nccc(N[C@H]4CNC[C@@H]4F)n3)cnc2c1` [Compound 52, N-((3S,4S)-4-fluoropyrrolidin-3-yl)-2-(7-isopropoxyimidazo[1,2-a]pyridin-3-yl)pyrimidin-4-amine], the pIC50 was 6.02 in assay [3]; 8.30 in assay [4]; 6.33 in assay [5]; 7.38 in assay [6]; 5.12 in assay [7].
Taken in the same sequence, the figures for `CC(C)Oc1ccn2c(-c3nccc(N[C@@H]4CCCNC4)n3)cnc2c1` [Compound 53, (R)-2-(7-isopropoxyimidazo[1,2-a]pyridin-3-yl)-N-(piperidin-3-yl)pyrimidin-4-amine] were 5.71, 8.70, 6.69, 7.22 and 5.66.
